Data taken from US20180168208A1 (priority 2014, published 2018).
Like-named read-outs stand apart in the source and are kept apart here.

Key:
Test in all cases: cell-based
T1R1/T1R3 receptor [1] = biological target: T1, T1R1/T1R3 receptor (Felis catus, UniProt E3UMS2); conditions: for Activity: overall call: active or N/A (not active) on T1R1/T1R3
Description: (§1) HEK293 cells that stably express T1R3 and inducibly express T1R1 were exposed to nucleotide derivatives alone to activate the umami receptor. Activation of the T1R1/T1R3 receptor was detected by a change in intracellular calcium levels using a calcium sensitive fluorescent dye. Cells that express T1R3 but not T1R1 were used as a control. A FLIPR® Tetra or a FlexStation® 3 was used for data capture.
as §1, with “alone or in combination with one or more amino acids and/or one or more nucleotides” for “alone”, “dye and/or a luminescent reporter system.” for “dye.”
as §1, with “transmembrane compounds” for “nucleotide derivatives”, “alone or in combination with one or more amino acids and/or one or more nucleotides” for “alone”
(§2) In each experiment, serial dilutions of up to 10 mM of the transmembrane compound were added to the T1R1/T1R3-expressing cells.

cat T1R1/T1R3 receptor = biological target: T2, cat T1R1/T1R3 receptor (Felis catus, UniProt A0ABI7Z2I4)
T2 sequence (A0ABI7Z2I4 171-420): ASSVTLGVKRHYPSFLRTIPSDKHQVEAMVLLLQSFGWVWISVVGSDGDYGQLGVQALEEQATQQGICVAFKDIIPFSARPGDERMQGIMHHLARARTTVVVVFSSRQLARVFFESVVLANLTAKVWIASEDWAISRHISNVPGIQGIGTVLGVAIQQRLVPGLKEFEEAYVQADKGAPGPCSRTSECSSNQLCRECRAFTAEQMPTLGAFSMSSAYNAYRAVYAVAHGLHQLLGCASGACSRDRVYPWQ
T2 sequence (Q49KI5 25-865 E206Q/N523D/F654L partner): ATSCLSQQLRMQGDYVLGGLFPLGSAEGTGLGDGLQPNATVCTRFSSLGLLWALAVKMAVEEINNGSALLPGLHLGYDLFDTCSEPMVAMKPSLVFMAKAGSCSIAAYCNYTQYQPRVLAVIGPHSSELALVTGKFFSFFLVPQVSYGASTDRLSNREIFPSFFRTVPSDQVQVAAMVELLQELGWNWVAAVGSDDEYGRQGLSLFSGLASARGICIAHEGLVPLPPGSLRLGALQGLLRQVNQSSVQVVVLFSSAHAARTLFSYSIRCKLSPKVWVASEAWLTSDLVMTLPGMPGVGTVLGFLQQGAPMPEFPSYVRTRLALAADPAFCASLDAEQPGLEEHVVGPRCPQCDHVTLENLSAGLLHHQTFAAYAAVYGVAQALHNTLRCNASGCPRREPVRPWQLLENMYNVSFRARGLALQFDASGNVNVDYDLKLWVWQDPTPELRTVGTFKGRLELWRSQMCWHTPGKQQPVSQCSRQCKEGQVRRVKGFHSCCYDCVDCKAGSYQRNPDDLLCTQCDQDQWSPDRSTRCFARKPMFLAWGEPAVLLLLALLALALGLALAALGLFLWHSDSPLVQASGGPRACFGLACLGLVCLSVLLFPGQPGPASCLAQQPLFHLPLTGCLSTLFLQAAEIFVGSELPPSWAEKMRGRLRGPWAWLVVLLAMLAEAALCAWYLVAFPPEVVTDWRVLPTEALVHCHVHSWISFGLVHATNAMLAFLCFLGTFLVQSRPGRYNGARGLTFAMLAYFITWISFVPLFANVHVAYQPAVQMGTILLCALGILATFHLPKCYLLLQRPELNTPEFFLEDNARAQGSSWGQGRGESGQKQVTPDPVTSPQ
Description: as §1, with “alone or in combination with one or more amino acids and/or one or more nucleotides” for “alone”, “dye and/or a luminescent reporter system.” for “dye.”

T1R1/T1R3 receptor [2] = biological target: T1, T1R1/T1R3 receptor; format: cell-based
Description: as §1, with “transmembrane compounds” for “nucleotide derivatives”, “alone or in combination with one or more amino acids and/or one or more nucleotides” for “alone”
as §2

[3] = EC50 (mM), +IMP (0.2 mM), in the presence of 0.2 mM IMP
[4] = T1R1/T1R3 EC50 +0.2 mM IMP, +0.2 mM IMP
[5] = T1R1/T1R3 EC50 +20 mM L-alanine + 0.2 mM IMP, +20 mM L-alanine + 0.2 mM IMP
[6] = in the presence of 0.2 mM IMP, relative to alanine
[7] = threshold concentration in the presence of 0.2 mM IMP
[8] = alone in buffer, read-out: T1R1/T1R3 EC50 alone in buffer
[9] = compound alone in buffer, read-out: EC50 (mM), +buffer (alone)
[10] = EC50 (mM), +Alanine (20 mM) + IMP (0.2 mM), in the presence of 20 mM alanine and 0.2 mM IMP
[11] = EC50 (effect with 0.2 mM IMP), control compounds, with 0.2 mM IMP, Table 25
[12] = EC50 (effect with 0.2 mM IMP), positive controls measured with 0.2 mM IMP
[13] = T1R1/T1R3 EC50 +20 mM L-alanine, +20 mM L-alanine

| SMILES | Max resp % of IMP, +Alanine (20 mM) (T1R1/T1R3 receptor [1]) [%] | EC50 (T1R1/T1R3 receptor [1]; [3]) [mM] | Max resp % of Ala, +IMP (0.2 mM) (T1R1/T1R3 receptor [1]; [6]) [%] | Thres (mM), +Alanine (20 mM) (T1R1/T1R3 receptor [1]) [mM] | Thres (mM), +IMP (0.2 mM) (T1R1/T1R3 receptor [1]; [7]) [mM] | EC50 (T1R1/T1R3 receptor [1]; [11]) [mM] | EC50 (T1R1/T1R3 receptor [2]; [12]) [µM] | EC50 (cat T1R1/T1R3 receptor; read-out: EC50) [µM] | further results |
| --- | --- | --- | --- | --- | --- | --- | --- | --- | --- |
| CC(=O)Nc1ccc(C(=O)Nc2cc(-c3ccccc3)nn2CCO)cc1 [4-acetamido-N-(1-(2-hydroxyethyl)-3-phenyl-1H-pyrazol-5-yl)benzamide] | 1.8 | > 1 | 58.8 |  |  |  |  |  | EC50 (T1R1/T1R3 receptor [1]; [4]): > 0.1 mM; EC50 (T1R1/T1R3 receptor [1]; [5]): > 0.1 mM |
| CCCCc1nn(CC(=O)N2CCCC2)c(=O)n1Cc1ccccc1 [4-benzyl-3-butyl-1-(2-oxo-2-(pyrrolidin-1-yl)ethyl)-1H-1,2,4-triazol-5(4H)-one] | 129.9 |  | 193.2 | 0.3 | 0.1 |  |  |  | EC50 (T1R1/T1R3 receptor [1]; [4]): > 0.3 mM; EC50 (T1R1/T1R3 receptor [1]; [5]): > 0.3 mM |
| O=P(O)(O)OP(=O)(O)OP(=O)(O)OC[C@H]1O[C@@H](n2cnc3c(Cl)ncnc32)[C@H](O)[C@@H]1O [6-Chloropurine riboside-5′-O-triphosphate] | 50.4 |  | 30.2 | 0.01 | 0.003 |  |  |  | EC50 (cat T1R1/T1R3 receptor): > 30 µM; Threshold (cat T1R1/T1R3 receptor): 0.01 mM; EC50 (T1R1/T1R3 receptor [1]; [8]): > 0.03 mM; EC50 (T1R1/T1R3 receptor [1]; [9]): > 0.3 mM; Activity (T1R1/T1R3 receptor [1]): active; EC50 (T1R1/T1R3 receptor [1]; read-out: EC50 (mM), +Alanine (20 mM)): > 0.3 mM; EC50 (T1R1/T1R3 receptor [1]; read-out: EC50 (mM), +Alanine (20 mM) + IMP (0.2 mM)): > 0.3 mM; EC50 (T1R1/T1R3 receptor [1]; read-out: EC50 (mM), +IMP (0.2 mM), in the presence of 0.2 mM IMP): > 0.3 mM; EC50 (T1R1/T1R3 receptor [1]; read-out: T1R1/T1R3 EC50 +0.2 mM IMP, +0.2 mM IMP): > 0.03 mM; EC50 (T1R1/T1R3 receptor [1]; read-out: T1R1/T1R3 EC50 +20 mM L-alanine): > 0.03 mM; EC50 (T1R1/T1R3 receptor [1]; read-out: T1R1/T1R3 EC50 +20 mM L-alanine + 0.2 mM IMP): > 0.03 mM |
| Nc1nc2c(ncn2[C@@H]2O[C@H](COP(=O)(O)OP(=O)(O)O)[C@@H](O)[C@H]2O)c(=S)[nH]1 [6-Thioguanosine-5′-O-diphosphate] | 152.8 |  | 9.3 | 0.03 |  |  |  |  | EC50 (T1R1/T1R3 receptor [1]; [10]): 0.28 mM; Max resp ΔF/F, +IMP (0.2 mM) (T1R1/T1R3 receptor [1]; in the presence of 0.2 mM IMP): 0.0720 ΔF/F |
| Nc1nc2c(ncn2[C@@H]2O[C@H](COP(=O)(O)O)[C@@H](O)[C@H]2O)c(=O)[nH]1 [GMP, guanosine monophosphate, reference compound] |  |  |  |  |  | 0.09 ± 0.02 | 50 ± 4 |  | EC50 (cat T1R1/T1R3 receptor): 20 µM; Threshold (cat T1R1/T1R3 receptor): 0.008 mM; EC50 (T1R1/T1R3 receptor [2]): 50 ± 20 µM; EC50 (T1R1/T1R3 receptor [2]; alone in buffer, read-out: EC50 - alone): 40 ± 10 µM |
| N[C@@H](CS)C(=O)O [L-Cysteine, cysteine] |  | 43.9 | 74.6 |  | 10.0 | 43.9 ± 5.6 | 39500 ± 1900 | 39500 ± 1900 | Max resp ΔF/F, +IMP (0.2 mM) (T1R1/T1R3 receptor [1]; in the presence of 0.2 mM IMP): 0.5800 ΔF/F |
| N[C@@H](Cc1c[nH]cn1)C(=O)O [L-Histidine, L-histidine] |  | 15.3 | 36.3 |  | 10.0 | 15.3 ± 3.2 | 10200 ± 1700 | 10200 ± 1700 |  |
| CSCC[C@H](N)C(=O)O [L-Methionine, methionine] |  |  |  |  |  |  | 25500 ± 3700 |  | EC50 (cat T1R1/T1R3 receptor): 25500 ± 3700 µM; Max resp % of Ala, +IMP (0.2 mM) (T1R1/T1R3 receptor [1]): 45.0%; Thres (mM), +IMP (0.2 mM) (T1R1/T1R3 receptor [1]): 30.0 mM; EC50 (T1R1/T1R3 receptor [1]; EC50 (effect with 0.2 mM IMP)): 33.9 ± 1.5 mM; EC50 (T1R1/T1R3 receptor [1]; EC50 (mM), +IMP (0.2 mM)): 33.9 mM |
| N[C@@H](Cc1ccccc1)C(=O)O [L-Phenylalanine, reference compound] |  | 0.5 | 75.9 |  | 0.1 | 0.5 ± 0.1 | 1900 ± 100 | 1900 ± 100 | Max resp ΔF/F, +IMP (0.2 mM) (T1R1/T1R3 receptor [1]; in the presence of 0.2 mM IMP): 0.5900 ΔF/F |
| N[C@@H](CO)C(=O)O [L-Serine, serine] |  | 15.1 | 100.0 |  | 3.0 | 15.1 ± 2.3 | 31500 ± 2300 | 31500 ± 2300 |  |
| N[C@@H](Cc1c[nH]c2ccccc12)C(=O)O [L-Tryptophan, tryptophan] |  | 0.5 | 86.8 |  | 0.1 | 0.5 ± 0.1 | 900 ± 100 | 900 ± 100 |  |
| N[C@@H](Cc1ccc(O)cc1)C(=O)O [L-Tyrosine, tyrosine] |  | 9.3 | 38.0 |  | 3.0 | 9.3 ± 1.7 |  | 10300 ± 900 |  |
| O=C(NCCCCNC(=O)c1cccnc1)c1cccnc1 [N,N′-(butane-1,4-diyl)dinicotinamide] | 9.5 |  | 49.2 | 1.0 | 0.1 |  |  |  |  |
| O=C(NCCc1ccccc1)c1ccccc1 [N-phenethylbenzamide] | 20.4 | 0.12 | 126.0 | 0.6 | 0.01 |  |  |  | EC50 (T1R1/T1R3 receptor [1]; [10]): 0.09 mM; EC50 (T1R1/T1R3 receptor [1]; EC50 (mM), +Alanine (20 mM), in the presence of 20 mM alanine): > 1 mM; EC50 (T1R1/T1R3 receptor [1]; [4]): 0.12 ± 0.03 mM; EC50 (T1R1/T1R3 receptor [1]; [13]): > 1 mM; EC50 (T1R1/T1R3 receptor [1]; [8]): 0.33 ± 0.01 mM; EC50 (T1R1/T1R3 receptor [1]; [9]): 0.33 mM; Max resp ΔF/F, +IMP (0.2 mM) (T1R1/T1R3 receptor [1]; in the presence of 0.2 mM IMP): 0.9800 ΔF/F |
| O=C(NCCc1ccccc1)c1ccc2c(c1)OCO2 [N-phenethylbenzo[d][1,3]dioxole-5-carboxamide] | 11.3 | 0.04 | 92.0 | 1.0 | 0.01 |  |  |  | EC50 (T1R1/T1R3 receptor [1]; [10]): 0.03 mM; EC50 (T1R1/T1R3 receptor [1]; [4]): 0.04 ± 0.01 mM; EC50 (T1R1/T1R3 receptor [1]; [13]): > 1 mM; EC50 (T1R1/T1R3 receptor [1]; [8]): 0.12 ± 0.07 mM; EC50 (T1R1/T1R3 receptor [1]; [9]): 0.12 mM |
| O=C(NCCc1ccccc1)c1cccnc1 [N-phenethylnicotinamide] | 83.6 | 0.35 | 149.5 | 0.1 | 0.03 |  |  |  | EC50 (T1R1/T1R3 receptor [1]; [10]): 0.22 mM; EC50 (T1R1/T1R3 receptor [1]; [4]): 0.35 ± 0.1 mM; EC50 (T1R1/T1R3 receptor [1]; [8]): 0.37 ± 0.02 mM; EC50 (T1R1/T1R3 receptor [1]; [9]): 0.37 mM |
| CCOC(=O)NC(=O)C(c1ccccc1)c1ccccc1 [Ro 01-6128, reference compound] | 74.8 |  | 199.7 | 0.3 | 0.01 |  |  |  | Activity (T1R1/T1R3 receptor [1]): active |
